By IC50 is commonly meant the concentration at which inhibition is half-maximal. Low values mean inhibition by little substance, high ones a need for much substance.

The structures appear in SMILES notation.

This test deals with T1, Dual specificity protein phosphatase 1 (Homo sapiens, UniProt P28562).
T1 sequence (P28562 whole entry): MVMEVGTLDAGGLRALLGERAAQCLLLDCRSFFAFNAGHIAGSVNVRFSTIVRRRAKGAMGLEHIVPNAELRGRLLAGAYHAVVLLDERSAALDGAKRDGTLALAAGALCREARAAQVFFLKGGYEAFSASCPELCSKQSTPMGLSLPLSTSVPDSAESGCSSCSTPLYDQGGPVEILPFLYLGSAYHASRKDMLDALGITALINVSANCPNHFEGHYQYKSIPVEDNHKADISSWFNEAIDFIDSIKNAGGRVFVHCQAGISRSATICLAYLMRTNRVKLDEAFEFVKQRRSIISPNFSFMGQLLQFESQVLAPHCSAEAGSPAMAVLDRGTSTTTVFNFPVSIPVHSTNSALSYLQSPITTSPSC
In words: concentration-response of DUSP1 blockers – biochemical, in vitro, confirmation, dose response (AID 551). The following applies: pH 7; 22 °C.
`Cc1ccc(C)n1-c1cccc(C(=O)O)c1`: the midpoint of inhibition, the IC50, lay at 12 µM.
In turn, `O=C(Nc1ccc2nc(-c3ccco3)c(-c3ccco3)nc2c1)N1CCCCCC1` gave a half-maximal inhibitory concentration (IC50) of 12.3 µM.
In turn, `CCCCCC#CCC#CCC#CCC#CCCCC(=O)O` had an IC50 of 6.53 µM.
As for `Cn1ncnc2c(=O)n(C)c(=O)nc1-2`, the figure is 0.184 µM.
As for `[O-]/[N+](=C\c1ccncc1)c1ccccc1`, the figure is 49.9 µM.
To `O=C(CSc1nc2n[nH]cc2c(=O)n1-c1ccccc1)N1CCCc2ccccc21` belongs above 50 µM; to `CCn1cc(C(=O)NC2CCC(C)CC2)c(=O)c2cc(S(=O)(=O)N3CCCCC3)ccc21` (stereo unspecified), 48.6 µM; to `CCSCCOC(=O)C1=C(C)N=C2CCCC(=O)C2C1c1coc2ccccc2c1=O` (stereo unspecified), above 50 µM.
In the case of `Oc1ncnc2[nH]ncc12`, the 50% inhibitory concentration (IC50) is above 50 µM.
Take `O=C1C=Cc2ccccc2C1=O` [1,2-dihydronaphthalene-1,2-dione]: the IC50 was 18.4 µM.
As for `Cc1nc2cc(-c3cccc(F)c3)nn2c(C)c1CCC(=O)N1CCC2(CC1)OCCO2` [1-(1,4-dioxa-8-azaspiro[4.5]decan-8-yl)-3-[2-(3-fluorophenyl)-5,7-dimethyl-6-pyrazolo[1,5-a]pyrimidinyl]-1-propanone], the figure is above 50 µM.
To `CC(C)(C)C(=O)c1sc(Nc2ccccc2)nc1N` [1-(4-amino-2-anilino-1,3-thiazol-5-yl)-2,2-dimethyl-1-propanone] belongs above 50 µM; to `CCn1nc(-c2ccccc2)nc2c(=O)n(C)c(=O)nc1-2` [1-Ethyl-6-methyl-3-phenyl-1H-pyrimido[5,4-e][1,2,4]triazine-5,7-dione], 0.197 µM.
As for `COc1ccc(S(=O)(=O)N2CCC(NC(=O)Nc3ccc(C)cc3)CC2)cc1` [1-[1-(4-Methoxy-benzenesulfonyl)-piperidin-4-yl]-3-p-tolyl-urea], the figure is above 50 µM.
On to `[O-]/[N+](=C\c1ccc(OC(F)F)cc1)c1ccccc1` [1-[4-(difluoromethoxy)phenyl]-N-phenylmethanimine oxide], for which the IC50 was above 50 µM.
As for `CCCCn1c(SCC(=O)c2ccc(OC)cc2OC)nc2cc(S(N)(=O)=O)ccc21` [1-butyl-2-[2-(2,4-dimethoxyphenyl)-2-oxidanylidene-ethyl]sulfanyl-benzimidazole-5-sulfonamide], the figure is above 50 µM; as for `CCn1c(=O)cc(SCC(=O)N2CCN(Cc3ccc4c(c3)OCO4)CC2)c2ccccc21` [1-ethyl-4-[[2-keto-2-(4-piperonylpiperazino)ethyl]thio]carbostyril], above 50 µM; as for `CCn1nc(-c2cccs2)nc2c(=O)n(C)c(=O)nc1-2` [1-ethyl-6-methyl-3-thiophen-2-yl-pyrimido[5,4-e][1,2,4]triazine-5,7-dione], 0.158 µM.
As for `O=C(Nc1ccccc1)c1ccc2nc(-c3ccco3)c(-c3ccco3)nc2c1` [2,3-di-2-furyl-N-phenyl-6-quinoxalinecarboxamide], the figure is 21.6 µM; as for `CC(C)Cn1c(N)c(C(=O)COC(=O)c2cc(-c3ccco3)nc3ccccc23)c(=O)n(C)c1=O` [2-(2-furanyl)-4-quinolinecarboxylic acid [2-[4-amino-1-methyl-3-(2-methylpropyl)-2,6-dioxo-5-pyrimidinyl]-2-oxoethyl] ester], 23.1 µM; as for `Cc1nn(C(C)C(=O)N2CCCCC2)c(=O)c2c1sc1ccccc12` (stereo unspecified) [2-(2-keto-1-methyl-2-piperidino-ethyl)-4-methyl-benzothiopheno[2,3-d]pyridazin-1-one], above 50 µM.
To `CCOc1ccc(-c2cc3nc(C4CCN(C(=O)OC(C)(C)C)CC4)c(C(=O)O)cn3n2)cc1` [2-(4-ethoxyphenyl)-5-[1-[(2-methylpropan-2-yl)oxy-oxomethyl]-4-piperidinyl]-6-pyrazolo[1,5-a]pyrimidinecarboxylic acid] belongs 15 µM; to `COc1ccc(-c2cc3nc(C4CCN(C(=O)OC(C)(C)C)CC4)c(C(=O)O)cn3n2)cc1` [2-(4-methoxyphenyl)-5-[1-[(2-methylpropan-2-yl)oxy-oxomethyl]-4-piperidinyl]-6-pyrazolo[1,5-a]pyrimidinecarboxylic acid], 26.9 µM; to `CCn1c(SCC(=O)Nc2nc3ccc(OC)cc3s2)nc2c1c(=O)n(C)c(=O)n2C` [2-(7-Ethyl-1,3-dimethyl-2,6-dioxo-2,3,6,7-tetrahydro-1H-purin-8-ylsulfanyl)-N-(6-methoxy-benzothiazol-2-yl)-acetamide], 18.2 µM.
In turn, `Cc1cccc(NC(=O)c2cc(NC(=O)C3CCCCC3C(=O)O)ccc2N2CCCCC2)c1` (stereo unspecified) [2-({[3-{[(3-methylphenyl)amino]carbonyl}-4-(1-piperidinyl)phenyl]amino}carbonyl)cyclohexanecarboxylic acid] had an IC50 of 49.2 µM.
To `Cc1ccc(Nc2nc(CSc3nnnn3-c3ccccc3)cc(=O)[nH]2)cc1` [2-[(4-methylphenyl)amino]-6-{[(1-phenyl-1H-tetrazol-5-yl)thio]methyl}-4(3H)-pyrimidinone] belongs above 50 µM.
To `O=C(CSc1nc2ccccc2c(=O)[nH]1)Nc1ccc(S(=O)(=O)N2CCCC2)cc1` [2-[(4-oxo-1H-quinazolin-2-yl)sulfanyl]-N-(4-pyrrolidin-1-ylsulfonylphenyl)acetamide] belongs above 50 µM; to `Cc1ccc(/C=C/C2=Cc3c(sc(NC(=O)CSc4nnc(N)[nH]4)c3C#N)C(C)(C)C2)o1` [2-[(5-azanyl-1H-1,2,4-triazol-3-yl)sulfanyl]-N-[3-cyano-7,7-dimethyl-5-[(E)-2-(5-methylfuran-2-yl)ethenyl]-6H-1-benzothiophen-2-yl]ethanamide], 9.38 µM.
As for `CCOc1ccc2nc(Nc3nc4c(c(=O)[nH]3)CCC4)nc(C)c2c1` [2-[(6-ethoxy-4-methylquinazolin-2-yl)amino]-1,5,6,7-tetrahydrocyclopenta[d]pyrimidin-4-one], the figure is above 50 µM.
As for `CCCCNC(=O)c1c(N)n(CCCOC)c2nc3ccccc3nc12` [2-amino-N-butyl-1-(3-methoxypropyl)-3-pyrrolo[3,2-b]quinoxalinecarboxamide], the IC50 turned out to be 26.2 µM.
In the case of `C=CCn1c(NC(=O)c2ccccc2Cl)c(C#N)c2nc3ccccc3nc21` [2-chloro-N-(3-cyano-1-prop-2-enyl-2-pyrrolo[3,2-b]quinoxalinyl)benzamide], the IC50 is above 50 µM.
As for `Cc1cccc(N2CCN(C(=O)c3cc4c(=O)[nH]c5ccccc5c4n3C)CC2)c1C` [2-{[4-(2,3-dimethylphenyl)piperazin-1-yl]carbonyl}-1-methyl-1,5-dihydro-4H-pyrrolo[3,2-c]quinolin-4-one], the figure is above 50 µM; as for `COc1ccc(C(=O)CSc2nnc(CNC(=O)c3ccc(OC)c(OC)c3)n2C)cc1` [3,4-dimethoxy-N-[(5-{[2-(4-methoxyphenyl)-2-oxoethyl]thio}-4-methyl-4H-1,2,4-triazol-3-yl)methyl]benzamide], above 50 µM; as for `CCCn1nnc(NC(=O)c2cc(Br)cc(Br)c2OC)n1` [3,5-bis(bromanyl)-2-methoxy-N-(2-propyl-1,2,3,4-tetrazol-5-yl)benzamide], above 50 µM.
Consider `O=c1c2cc(N3CCOCC3)ccc2[nH]c(=S)n1Cc1ccco1` [3-(2-furanylmethyl)-6-(4-morpholinyl)-2-sulfanylidene-1H-quinazolin-4-one], for which the IC50 is above 50 µM.
On to `CC1CCCCC1NC(=O)CCn1c(=O)oc2ccccc21` (stereo unspecified) [3-(2-keto-1,3-benzoxazol-3-yl)-N-(2-methylcyclohexyl)propionamide], for which the IC50 is above 50 µM.
As for `N#Cc1c(N)sc(=S)c2c1CCN(Cc1ccccc1)C2` [3-Amino-7-benzyl-1-thioxo-5,6,7,8-tetrahydro-1H-thiopyrano[3,4-c]pyridine-4-carbonitrile], the figure is 1.13 µM; as for `O=C1C=C(NCc2ccc(Cl)c(Cl)c2)CC1` [3-[(3,4-dichlorobenzyl)amino]cyclopent-2-en-1-one], above 50 µM.
As for `CCCSc1nnc(NC(=O)c2sc3nc(-c4cccs4)ccc3c2N)s1` [3-amino-N-(5-propylsulfanyl-1,3,4-thiadiazol-2-yl)-6-thiophen-2-ylthieno[2,3-b]pyridine-2-carboxamide], the figure is 12.4 µM; as for `O=C(c1cccn2c(=O)c3ccc(Cl)cc3nc12)N1CCN(Cc2ccc3c(c2)OCO3)CC1` [3-chloro-6-(4-piperonylpiperazine-1-carbonyl)pyrido[2,1-b]quinazolin-11-one], above 50 µM; as for `O=C1Nc2ccccc2SC(c2ccccc2)C1O` (stereo unspecified) [3-hydroxy-2-phenyl-2,3-dihydro-1,5-benzothiazepin-4(5H)-one], 20.1 µM.
To `CCOC(=O)CC(=O)CSc1nnc2sc3ccccc3n12` [3-keto-4-([1,2,4]triazolo[3,4-b][1,3]benzothiazol-1-ylthio)butyric acid ethyl ester] belongs above 50 µM.
Consider `COC(=O)CCCc1nc2ccccc2s1` [4-(1,3-benzothiazol-2-yl)butanoic acid methyl ester], for which the IC50 was above 50 µM.
For the compound `Cc1cccc(N2CCN(S(=O)(=O)c3ccc4c(c3)CCN4C(=O)CCC(=O)O)CC2)c1C` [4-(5-{[4-(2,3-dimethylphenyl)piperazin-1-yl]sulfonyl}-2,3-dihydro-1H-indol-1-yl)-4-oxobutanoic acid], the IC50 was above 50 µM.
To `CC1CCCCC1NS(=O)(=O)c1ccc(S(=O)(=O)NCc2ccncc2)cc1` (stereo unspecified) [4-N-(2-methylcyclohexyl)-1-N-(pyridin-4-ylmethyl)benzene-1,4-disulfonamide] belongs above 50 µM; to `COC(=O)CCC(=O)Oc1ccc(OC(=O)CCC(=O)OC)cc1` [4-O-[4-(4-methoxy-4-oxobutanoyl)oxyphenyl] 1-O-methyl butanedioate], above 50 µM.

Values taken from BindingDB's records for doi:10.7270/Q2F769WQ (University of Pittsburgh, 2007).
